# Entries after “also recorded” stand apart in the source; their conditions may differ.
# Assays:
# Type in all cases: cell-based, human
# CFHNE monolayers = test: Monolayer resistance / tight junction integrity in Ussing chambers (toxicity)
# Protocol: 3. In addition, delayed toxic effects could result in long-term damage of the monolayers that would not become apparent for several hours. Therefore, it is of interest to note whether the resistance or conductance was affected during this period. A reduction in resistance in monolayers treated with compound could indicate weakened tight junctions.
# […] […] As a control, the effect of pretreatment with phosphate-propionoxymethyl ester (26.6 μM) was tested using the same protocol.
# [1] = tested on: calcium-activated Cl- channel; test: Perforated patch whole cell recording of Cl- current
# Protocol: In FIGS. 4A and 4B, the response to 10 μM INO-E2 is contrasted with the response to ATP.
# [2] = tested on: Ca2+ activated Cl- secretion; test: ATP-stimulated Cl- secretion after amiloride in Ussing chambers; conditions: repeated exposure 1-2.5 μM over 96 hours, then amiloride, then apical ATP
# Protocol: FIG. 3 is a graph showing the effect of repeated exposure to INO-E2 on physiological parameters in CFHNE. 2.5 μM INO-E2 was added every 24 hrs for 4 days. Effects on Isc in CFHNE, passage 2 are depicted. Every 24 hrs medium in the basolateral compartment was exchanged with fresh medium containing 2.5 μM INO-E2. On the 4th day the monolayers were mounted in Ussing chambers and basal Isc, conductance and resistance measured. After a stable baseline was reached, amiloride was added to determine the amiloride-inhibitable-Isc. Under these conditions, subsequent apical addition of the Ca^2+-mobilizing agent, ATP, allows Cl^− secretion to be examined in isolation.
# The therapeutic potential of INO-E2 was investigated by using protocols that model in vivo treatments. In this experiment the effects of repeated exposure to a low dose of INO-E2 (2.5 μM) on basal Isc and responsiveness to calcium-mobilizing agonists (ATP) in human nasal CF epithelia (CFHNE) was tested. […] T here was no apparent difference in responses to compound added to the apical or basolateral compartment. This series of experiments provides information that useful for deriving the optimal therapeutic dose and delivery schedule for in vivo tests.
structure (smiles),measurement,setting,value
"CCCCCCCCOC1C(OC(=O)CCC)C(OP(=O)(OCOC(=O)CC)OCOC(=O)CC)C(OP(=O)(OCOC(=O)CC)OCOC(=O)CC)C(OP(=O)(OCOC(=O)CC)OCOC(=O)CC)C1OP(=O)(OCOC(=O)CC)OCOC(=O)CC (stereo not shown) [INO-E2, 2-O-butyryl-1-O-octyl-myo-inositol 3,4,5,6-tetrakisphosphate octakis (propionoxymethyl) ester]",toxicity on repeated exposure (deterioration of tight junctions),CFHNE monolayers; 1-2.5 μM repeatedly over 96 hours,no indication of toxicity; also recorded: No evidence of toxicity
same,toxic effects as evaluated by tight junction integrity,"CFHNE monolayers; 2 hr exposure 24 hrs before, up to highest concentration 200 μM",no apparent toxic effects
same,integrity of the monolayers at high concentration,CFHNE monolayers; concentrations in 100 fold excess of the acute EC50,no decrement in the integrity of the monolayers
same,monolayer resistance,"CFHNE monolayers; measured shortly after mounting, highest concentration 200 μM",increased
same,time to appearance of Cl- currents after addition,"[1]; 10 μM, CFHNE cell, perforated patch",5 to 15 min
same,increase in chloride current,"[1]; 5 and 10 μM, other perforated patch recordings, data not shown",low to intermediate increase
same,response to ATP (Ca2+ activated Cl- secretion) in treated monolayers,[2],augments subsequent stimulation of Ca^2+ activated Cl^− secretion; also recorded: elevated
